In US7955808B2, “Bitter taste receptors” (Deutsches Institut für Ernährungsorschung, Stiftung des …, priority 2002, dated 2011):

Key:
[1] = target: hTAS2R43 (Homo sapiens, UniProt P59537, H212R/W35S)
Text: (§1) These cells stably express a chimeric G protein constructed from human Gα16 and rat gustducin. Finally, we seeded the transfected cells at a density of 3×10^3 cells per well into 96-well black-wall, clear-bottom microtiter plates (Greiner).
(§2) Co-transfection of TAS2Rs with gustducin and phospholipase-Cβ2 into HEK-293 cells. Alternatively, we transfected simultaneously plasmid DNAs encoding one of the TAS2Rs, phospholipase-Cβ2 and α-gustducin into HEK-293 cells using the lipofectamine method. […] Thereafter, the transfected cells were seeded at a density of 3×10^3 cells per well into 96-well black-wall, clear-bottom microtiter plates (Greiner).
(§3) Thereafter, cells were gently washed in HBS by an automated plate washer (Denley Cellwash, Labsystenms) and transferred to the FLIPR (Molecular Devices). The FLIPR integrates an argon laser excitation source, a 96-well pipettor, and a detection system utilizing a Charged Coupled Device imaging camera. […] Fluorescence data were collected 1 min before and 10 min after stimulation. Data were collected every 6 s before and every 1 s after agonist stimulation. 50 μl of 3× concentrated agonists were delivered within 2 by the integrated 96-well pipettor to the wells containing 100 μl HBS. Agonist responses were quantified using the amplitudes of the fluorescence peaks. We averaged the responses of five wells containing cells expressing the same receptor and that received the same stimulus. Calcium traces were determined in triplicate of mock-transfected cells stimulated with the same concentration of tastant.

[2] = target: hTAS2R44 (Homo sapiens, UniProt P59538, L162M)
Sequence of hTAS2R44 (P59538 whole entry L162M): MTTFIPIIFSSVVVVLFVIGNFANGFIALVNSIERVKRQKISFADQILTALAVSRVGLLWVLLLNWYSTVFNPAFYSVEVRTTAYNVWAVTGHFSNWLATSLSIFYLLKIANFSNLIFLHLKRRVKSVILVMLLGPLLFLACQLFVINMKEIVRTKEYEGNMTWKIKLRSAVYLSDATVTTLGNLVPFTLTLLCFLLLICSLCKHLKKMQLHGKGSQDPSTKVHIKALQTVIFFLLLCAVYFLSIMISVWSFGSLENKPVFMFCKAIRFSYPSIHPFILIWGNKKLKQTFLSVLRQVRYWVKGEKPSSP
Text: as §1, §2, §3

[3] = target: T1, hTAS2R10 (Homo sapiens, UniProt Q9NYW0, T156M); test: FLIPR assay, heterologous expression of hTAS2R10; assay type: cell-based; conditions: hTAS2R10
T1 construct: gene-specific primers that span the complete coding region of the individual hTAS2R genes; first 45 amino acids of rat somatostatin type 3 receptor (cell surface-targeting signal) (N); expressed in transfected cells; host or cells: HEK-293T-Gα16gustducin44 cells (alternatively HEK-293 co-transfected with phospholipase-Cβ2 and α-gustducin)
T1 sequence (Q9NYW0 1-307 T156M): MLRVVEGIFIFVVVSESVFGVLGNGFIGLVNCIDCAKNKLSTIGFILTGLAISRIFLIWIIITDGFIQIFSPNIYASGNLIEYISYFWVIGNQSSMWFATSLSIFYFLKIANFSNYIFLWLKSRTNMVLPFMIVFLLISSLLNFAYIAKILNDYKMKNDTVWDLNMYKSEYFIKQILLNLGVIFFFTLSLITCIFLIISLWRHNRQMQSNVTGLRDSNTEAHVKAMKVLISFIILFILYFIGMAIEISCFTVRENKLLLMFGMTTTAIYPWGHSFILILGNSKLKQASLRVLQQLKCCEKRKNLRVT
Text: (§4) Transient transfection of TAS2Rs into HEK-293T-Gα16gustducin44 cells.

[4] = target: T2, hTAS2R45 (Homo sapiens, UniProt P59539); test: FLIPR assay, heterologous expression of hTAS2R45; assay type: cell-based
T2 construct: gene-specific primers that span the complete coding region of the individual hTAS2R genes; first 45 amino acids of rat somatostatin type 3 receptor (cell surface-targeting signal) (N); expressed in transfected cells; host or cells: HEK-293T-Gα16gustducin44 cells (alternatively HEK-293 co-transfected with phospholipase-Cβ2 and α-gustducin)
T2 sequence (P59539 1-299): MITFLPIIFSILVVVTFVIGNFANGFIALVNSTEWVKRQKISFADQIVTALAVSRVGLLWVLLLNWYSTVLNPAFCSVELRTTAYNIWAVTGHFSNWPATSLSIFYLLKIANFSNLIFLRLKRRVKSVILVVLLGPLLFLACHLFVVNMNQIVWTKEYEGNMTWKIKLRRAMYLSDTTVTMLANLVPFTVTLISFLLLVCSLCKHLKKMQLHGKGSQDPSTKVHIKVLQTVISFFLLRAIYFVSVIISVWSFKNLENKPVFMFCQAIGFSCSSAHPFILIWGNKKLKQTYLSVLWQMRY
Text: as §4

[5] = target: T3, hTAS2R46 (Homo sapiens, UniProt P59540); test: FLIPR assay, heterologous expression of hTAS2R46; assay type: cell-based
T3 construct: gene-specific primers that span the complete coding region of the individual hTAS2R genes; first 45 amino acids of rat somatostatin type 3 receptor (cell surface-targeting signal) (N); expressed in transfected cells; host or cells: HEK-293T-Gα16gustducin44 cells (alternatively HEK-293 co-transfected with phospholipase-Cβ2 and α-gustducin)
T3 sequence (P59540 with tags, fused parts or gaps limits assumed): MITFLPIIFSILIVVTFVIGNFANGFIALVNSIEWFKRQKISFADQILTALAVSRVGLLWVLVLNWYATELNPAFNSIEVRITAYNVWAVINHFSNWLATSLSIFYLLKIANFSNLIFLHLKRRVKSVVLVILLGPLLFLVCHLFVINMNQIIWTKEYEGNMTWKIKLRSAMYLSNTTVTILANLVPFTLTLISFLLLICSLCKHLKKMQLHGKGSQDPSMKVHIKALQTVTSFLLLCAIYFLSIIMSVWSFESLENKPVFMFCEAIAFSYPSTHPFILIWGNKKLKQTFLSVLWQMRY
Text: as §4

[6] = target: T4, hTAS2R48 (Homo sapiens, UniProt P59542); test: FLIPR assay, heterologous expression of hTAS2R48; assay type: cell-based
T4 construct: gene-specific primers that span the complete coding region of the individual hTAS2R genes; first 45 amino acids of rat somatostatin type 3 receptor (cell surface-targeting signal) (N); expressed in transfected cells; host or cells: HEK-293T-Gα16gustducin44 cells (alternatively HEK-293 co-transfected with phospholipase-Cβ2 and α-gustducin)
T4 sequence (P59542 1-299): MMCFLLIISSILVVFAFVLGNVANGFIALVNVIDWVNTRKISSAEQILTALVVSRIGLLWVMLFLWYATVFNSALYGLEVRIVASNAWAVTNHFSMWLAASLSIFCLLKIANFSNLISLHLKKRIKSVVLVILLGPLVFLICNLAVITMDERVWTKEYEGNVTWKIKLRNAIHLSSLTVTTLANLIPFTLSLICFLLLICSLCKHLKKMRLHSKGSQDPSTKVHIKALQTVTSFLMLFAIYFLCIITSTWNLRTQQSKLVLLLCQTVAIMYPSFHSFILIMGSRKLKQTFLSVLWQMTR
Text: as §4

Sequence of hTAS2R43 (P59537 whole entry W35S/H212R): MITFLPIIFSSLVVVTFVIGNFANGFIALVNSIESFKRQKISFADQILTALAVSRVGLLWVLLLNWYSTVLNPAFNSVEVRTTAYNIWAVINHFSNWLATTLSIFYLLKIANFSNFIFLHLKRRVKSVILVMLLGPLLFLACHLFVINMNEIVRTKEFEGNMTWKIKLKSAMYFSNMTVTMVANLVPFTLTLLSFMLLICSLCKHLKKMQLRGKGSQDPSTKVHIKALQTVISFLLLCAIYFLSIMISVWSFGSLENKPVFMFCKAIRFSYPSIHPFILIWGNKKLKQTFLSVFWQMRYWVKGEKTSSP

| Approx. Threshold [1] | Approx. Threshold [2] | receptor activation (in words) [2] | Approx. Threshold [3] | receptor activation (in words) [3] | Approx. Threshold [4] | receptor activation (in words) [4] | Approx. Threshold [5] | receptor activation (in words) [5] | Approx. Threshold [6] | receptor activation (in words) [6] | Compound |
| --- | --- | --- | --- | --- | --- | --- | --- | --- | --- | --- | --- |
| No response up to 10 mM | 0.5 mM | activated | – | – | – | – | – | – | – | – | CC1=CC(=O)NS(=O)(=O)O1 [Acesulfame K] |
| – | – | – | 0.01 mM | activated | 0.003 mM | activated | 0.001 mM | activated | 0.03 mM | activated | CC1=C[C@@H]2[C@@H]3C4C(=C(C)[C@@H]3[C@@]13[C@@H]2[C@@](C)(O)CC[C@H]1[C@H](C)C(=O)O[C@@H]13)[C@H]1OC(=O)[C@@H](C)[C@@H]1CC[C@]4(C)O (some centres unmarked) [Absinthine] |
